Source: patent publication US20230133580A1, “MENTHOL-CONTAINING COMPOSITION” (SUNSHO PHARMACEUTICAL CO., LTD., priority 2020, published 2023)
Structures can show the parent of a compound that is named as a salt.

What was measured:
[1] = l-Menthol dissolution test; assay type: physicochemical; details: for Dissolution: stored at 20° C.
Protocol: The solution was stored at 20° C. and evaluated based on the time during which the solution was maintained in a liquid state without solidifying.
A sample that solidified before being cooled down to 20° C. [e.g., during the process of cooling down to a temperature below the melting point of l-menthol (generally 42 to 45° C.)] or immediately (e.g., within 30 minutes) after being stored at 20° C. was rated D. A sample that was maintained as a solution for a while (e.g., more than 30 minutes) but solidified in less than 24 hours was rated C.

[2] = Encapsulation test C (interfacial tension against purified water); assay type: physicochemical; details: for interfacial tension: against purified water
Protocol: The interfacial tension was measured with the force tensiometer SIGMA 702 (KSV Instruments LTD).

[3] = menthol concentration ranging 70 to 50 wt %
[4] = menthol concentration ranging 60 to 50 wt %
[5] = samples containing 80 to 50 wt % l-menthol

Structure (SMILES) | Dissolution ([1]; l-Menthol 50, solvent 50 pbw) | Dissolution ([1]; l-Menthol 60, solvent 40 pbw) | Dissolution ([1]; l-Menthol 70, solvent 30 pbw) | ability to dissolve menthol (rating) [1, 3] | ability to dissolve menthol (rating) [1, 4] | further results
CCOCCOCC [1,2-Diethoxyethane] | A (A sample that did not solidify in 10 days or more was rated A) | A (A sample that did not solidify in 10 days or more was rated A) | A (A sample that did not solidify in 10 days or more was rated A) | A (A sample that did not solidify in 10 days or more was rated A) | – | –
CC(=O)OCCCCCCOC(C)=O [1,6-Diacetoxyhexane] | A (A sample that did not solidify in 10 days or more was rated A) | A (A sample that did not solidify in 10 days or more was rated A) | C (A sample that was maintained as a solution for a while (e.g., more than 30 minutes) but solidified in less than 24 hours was rated C) | – | A (A sample that did not solidify in 10 days or more was rated A) | –
CC(=O)OCCCCCCCCOC(C)=O [1,8-Diacetoxyoctane] | A (A sample that did not solidify in 10 days or more was rated A) | C (A sample that was maintained as a solution for a while (e.g., more than 30 minutes) but solidified in less than 24 hours was rated C) | C (A sample that was maintained as a solution for a while (e.g., more than 30 minutes) but solidified in less than 24 hours was rated C) | – | – | ability to dissolve menthol (rating) ([1]; menthol concentration of 50%): A (A sample that did not solidify in 10 days or more was rated A)
OCc1ccccc1 [Benzyl alcohol] | – | – | – | – | – | Dissolution ([1]; l-Menthol 80, solvent 20 pbw): A (A sample that did not solidify in 10 days or more was rated A)
O=C(OCc1ccccc1)c1ccccc1 [Benzyl benzoate] | B (A sample that solidified in 24 hours or more but less than 10 days was rated B) | C (A sample that was maintained as a solution for a while (e.g., more than 30 minutes) but solidified in less than 24 hours was rated C) | C (A sample that was maintained as a solution for a while (e.g., more than 30 minutes) but solidified in less than 24 hours was rated C) | – | – | ability to dissolve menthol (rating) ([1]; menthol concentration of 50%): B (A sample that solidified in 24 hours or more but less than 10 days was rated B)
CCOC(=O)/C=C/C(=O)OCC [Diethyl fumarate] | A (A sample that did not solidify in 10 days or more was rated A) | A (A sample that did not solidify in 10 days or more was rated A) | C (A sample that was maintained as a solution for a while (e.g., more than 30 minutes) but solidified in less than 24 hours was rated C) | – | A (A sample that did not solidify in 10 days or more was rated A) | –
CCOC(=O)CC(=O)OCC [Diethyl malonate] | B (A sample that solidified in 24 hours or more but less than 10 days was rated B) | B (A sample that solidified in 24 hours or more but less than 10 days was rated B) | B (A sample that solidified in 24 hours or more but less than 10 days was rated B) | – | – | interfacial tension [2, 5]: ≥ 5 mN/m; Dissolution ([1]; l-Menthol 80, solvent 20 pbw): B (A sample that solidified in 24 hours or more but less than 10 days was rated B); ability to dissolve menthol (rating) ([1]; regardless of the menthol concentration): B (A sample that solidified in 24 hours or more but less than 10 days was rated B)
CCOC(=O)CCCCCCCCC(=O)OCC [Diethyl sebacate] | A (A sample that did not solidify in 10 days or more was rated A) | A (A sample that did not solidify in 10 days or more was rated A) | A (A sample that did not solidify in 10 days or more was rated A) | A (A sample that did not solidify in 10 days or more was rated A) | – | interfacial tension ([2]; samples containing 70 to 50 wt % l-menthol): ≥ 5 mN/m; Dissolution ([1]; l-Menthol 80, solvent 20 pbw): C (A sample that was maintained as a solution for a while (e.g., more than 30 minutes) but solidified in less than 24 hours was rated C)
CCOC(=O)CCC(=O)OCC [Diethyl succinate] | A (A sample that did not solidify in 10 days or more was rated A) | A (A sample that did not solidify in 10 days or more was rated A) | A (A sample that did not solidify in 10 days or more was rated A) | A or B | – | interfacial tension [2, 5]: ≥ 5 mN/m; Interfacial tension rating ([2]; l-Menthol 50, solvent 50 pbw): A (a sample having an interfacial tension of 5 mN/m or more was rated A); Interfacial tension rating ([2]; l-Menthol 60, solvent 40 pbw): A (a sample having an interfacial tension of 5 mN/m or more was rated A); Interfacial tension rating ([2]; l-Menthol 70, solvent 30 pbw): A (a sample having an interfacial tension of 5 mN/m or more was rated A); Interfacial tension rating ([2]; l-Menthol 80, solvent 20 pbw): A (a sample having an interfacial tension of 5 mN/m or more was rated A); Dissolution ([1]; l-Menthol 80, solvent 20 pbw): C (A sample that was maintained as a solution for a while (e.g., more than 30 minutes) but solidified in less than 24 hours was rated C)
CCCCOCCOCCOCCCC [Diethylene glycol dibutyl ether] | A (A sample that did not solidify in 10 days or more was rated A) | A (A sample that did not solidify in 10 days or more was rated A) | C (A sample that was maintained as a solution for a while (e.g., more than 30 minutes) but solidified in less than 24 hours was rated C) | – | A (A sample that did not solidify in 10 days or more was rated A) | –
CC(C)COC(=O)CCCCC(=O)OCC(C)C [Diisobutyl adipate] | A (A sample that did not solidify in 10 days or more was rated A) | A (A sample that did not solidify in 10 days or more was rated A) | A (A sample that did not solidify in 10 days or more was rated A) | A (A sample that did not solidify in 10 days or more was rated A) | – | Dissolution ([1]; l-Menthol 80, solvent 20 pbw): C (A sample that was maintained as a solution for a while (e.g., more than 30 minutes) but solidified in less than 24 hours was rated C)
CCCCCCCCCC(=O)OCC [Ethyl decanoate] | A (A sample that did not solidify in 10 days or more was rated A) | A (A sample that did not solidify in 10 days or more was rated A) | C (A sample that was maintained as a solution for a while (e.g., more than 30 minutes) but solidified in less than 24 hours was rated C) | – | A (A sample that did not solidify in 10 days or more was rated A) | –
CCCCCCCCCCCC(=O)OCC [Ethyl laurate] | A (A sample that did not solidify in 10 days or more was rated A) | A (A sample that did not solidify in 10 days or more was rated A) | C (A sample that was maintained as a solution for a while (e.g., more than 30 minutes) but solidified in less than 24 hours was rated C) | – | A (A sample that did not solidify in 10 days or more was rated A) | –
CCCCCCCCCCCCCCCC(=O)OCC [Ethyl palmitate] | B (A sample that solidified in 24 hours or more but less than 10 days was rated B) | B (A sample that solidified in 24 hours or more but less than 10 days was rated B) | C (A sample that was maintained as a solution for a while (e.g., more than 30 minutes) but solidified in less than 24 hours was rated C) | – | B (A sample that solidified in 24 hours or more but less than 10 days was rated B) | –
CC(=O)OCCOC(C)=O [Ethylene glycol diacetate] | C (A sample that was maintained as a solution for a while (e.g., more than 30 minutes) but solidified in less than 24 hours was rated C) | C (A sample that was maintained as a solution for a while (e.g., more than 30 minutes) but solidified in less than 24 hours was rated C) | C (A sample that was maintained as a solution for a while (e.g., more than 30 minutes) but solidified in less than 24 hours was rated C) | – | – | –
CCCCOCCOCCCC [Ethylene glycol dibutyl ether] | A (A sample that did not solidify in 10 days or more was rated A) | A (A sample that did not solidify in 10 days or more was rated A) | A (A sample that did not solidify in 10 days or more was rated A) | A (A sample that did not solidify in 10 days or more was rated A) | – | –
CCNCCCCCCNCC [N,N′-diethyl-1,6-hexanediamine] | A (A sample that did not solidify in 10 days or more was rated A) | A (A sample that did not solidify in 10 days or more was rated A) | A (A sample that did not solidify in 10 days or more was rated A) | A (A sample that did not solidify in 10 days or more was rated A) | – | –
CCCC(=O)OCC(COC(=O)CCC)OC(=O)CCC [Tributyrin] | B (A sample that solidified in 24 hours or more but less than 10 days was rated B) | C (A sample that was maintained as a solution for a while (e.g., more than 30 minutes) but solidified in less than 24 hours was rated C) | C (A sample that was maintained as a solution for a while (e.g., more than 30 minutes) but solidified in less than 24 hours was rated C) | – | – | ability to dissolve menthol (rating) ([1]; menthol concentration of 50%): B (A sample that solidified in 24 hours or more but less than 10 days was rated B)
CCOC(=O)CC(O)(CC(=O)OCC)C(=O)OCC [Triethyl citrate] | C (A sample that was maintained as a solution for a while (e.g., more than 30 minutes) but solidified in less than 24 hours was rated C) | C (A sample that was maintained as a solution for a while (e.g., more than 30 minutes) but solidified in less than 24 hours was rated C) | C (A sample that was maintained as a solution for a while (e.g., more than 30 minutes) but solidified in less than 24 hours was rated C) | – | – | –
